According to paper PMC4980028, “Discovery of a Series of Acridinones as Mechanism-Based Tubulin Assembly Inhibitors with Anticancer Activity” (PLoS ONE, 2016):
Where two headings read alike, the source gives them in different places.

Columns and labels:
Cytotoxicity assay (MTS) = format: cell-based, human; details: human, FGH cells (normal fibroblasts); 72 h MTS assay, normal fibroblasts
Description: (§1) Then, 20 μL of the MTS reagent (CellTiter 96® AQueous One Solution Cell Proliferation Assay, Promega) was added to the wells, and the cells were incubated for 3 to 4 h at 37°C. Next, absorbance was measured at 490 nm using a spectrophotometer (SpectraMax Plus384, Molecular Devices). The percentage of unviable cells was determined in relation to the control wells, and at least two independent experiments were carried out for each test compound.

MDA-MB-231 cells [1] = assay: Cell-cycle analysis by flow cytometry; format: cell-based, human; details: 48 h, 1 or 3 μM, synchronized culture
Description: MDA-MB-231 cells were added at a density of 5 x 10^5 cells in 25 cm^2 culture bottles (TPP^TM) with 5 mL of medium supplemented with 10% FBS. After 36 h, the media was removed, and 5 mL of fresh media without FBS was added. The bottles were then incubated for 48 h for cell-cycle synchronization. Then, the cells were treated with the test compounds (1 or 3 μM) for 48 h. Subsequently, the cells were harvested by trypsinization, and their chromatin was fixed and stained following the manufacturer’s instructions (cat. no. 340242, BD Biosciences^TM). Shortly thereafter, the cells were centrifuged at 300 rcf for 5 min and resuspended in 1 mL of buffer (sodium citrate, sucrose, and DMSO) three times. From this suspension, 1 x 10^6 cells were centrifuged at 400 rcf for 5 min, resuspended in 250 μL of solution A (trypsin in a spermine tetrahydrochloride detergent buffer) and incubated for 10 min at room temperature. Next, 200 μL of solution B (trypsin inhibitor and ribonuclease A in citrate-stabilizing buffer with spermine tetrahydrochloride) was added, and the suspension was incubated for 10 min at room temperature. Finally, 200 μL of solution C (propidium iodide (PI) and spermine tetrahydrochloride in citrate stabilizing buffer) was added, and the sample was incubated for 15 min in the refrigerator. The samples were then analyzed by flow cytometry using a BD Accuri C5 (BD Biosciences^TM) system (excitation at 488 nm and emission detected with a 585/40 nm filter).

MDA-MB-231 = assay: Cytotoxicity assay (MTS); format: cell-based, human; details: for IC50: 72 h MTS assay; for dead cells in MTS studies: similar concentrations as apoptosis analyses
Description: as §1, with “MDA-MB-231, DU-145 and FGH cell lines were plated at a concentration of 4 x 10^3 cells/well in 96-well culture plates (TPP^TM). After 24 h, 10 concentrations (100–0.16 μM) of the test compounds were added in triplicate to the wells, and the plates were incubated for 72 h at 37°C in a 5% CO2 humidified atmosphere (if necessary). Then,” for “Then,”

DU-145 = assay: Cytotoxicity assay (MTS); format: cell-based, human; details: 72 h MTS assay
Description: as §1, with “MDA-MB-231, DU-145 and FGH cell lines were plated at a concentration of 4 x 10^3 cells/well in 96-well culture plates (TPP^TM). After 24 h, 10 concentrations (100–0.16 μM) of the test compounds were added in triplicate to the wells, and the plates were incubated for 72 h at 37°C in a 5% CO2 humidified atmosphere (if necessary). Then,” for “Then,”

MDA-MB-231 cells [2] = assay: Apoptosis analysis (FITC-Annexin V/PI flow cytometry); format: cell-based, human; details: for dead cells: 72 h after treatment; for apoptotic cells: after 24 h
Description: Apoptosis was measured by flow cytometry via double staining with FITC-Annexin V and PI (cat. no. 556570, BD Pharmigen^TM). Cells were prepared in the same way as described for the cell-cycle analysis, except that the cell-synchronization step was omitted in this case. After treatment with the test compounds for 24 or 72 h, the cells were harvested by trypsinization and centrifuged for 10 min at 150 rcf. The pellet was resuspended in annexin V binding buffer at a concentration of 10^6 cells/mL. Then, 100 μL of this suspension was collected and stained with 5 μL of PI and FITC-Annexin V for 15 min at room temperature in the dark. After this, 400 μL of annexin V binding buffer was added, and the samples were analyzed using a BD Accuri C5 cytometer with excitation at 488 nm and emission detected with 533/30 nm (FITC) and 670 LP nm (PI) filters.

MDA-MB-231 cells [3] = assay: Wound healing assay; format: cell-based, human; details: 10 μM, 22 h
Description: To qualitatively evaluate directional cell migration, MDA-MB-231 cells were seeded at a density of 1 x 10^5 cells/well in 24-well culture plates (TPP^TM) and allowed to reach a confluent monolayer. Then, the wells were scratched using a sterile 100 μL pipette tip. The medium was removed and fresh medium without FBS was added to clean the debris. Next, the cells were incubated for 22 h at 37°C with supplemented medium (10% FBS) and different concentrations of test compounds (10 μM, 1 μM and 0.250 μM). When measuring the wound closure, the wells were photographed under a 4X objective (Optiphase) at 0 and 22 h. The images were analyzed using Image J software, and two independent experiments were conducted in triplicate.

FGH = assay: Cytotoxicity assay (MTS); format: cell-based, human; details: for cell death in FGH cells: concentrations around the IC50 values in MDA-MB-231 cells; for IC50: 72 h MTS assay, normal fibroblasts
Description: as §1

MDA-MB-231 cells [4] = assay: Boyden chamber (transwell) migration assay; format: cell-based, human; details: MDA-MB-231, transwell, 6 h, read-out: IC50 Cell migration
Description: Transwells containing 0.3 cm^2 inserts with 8.0 μm pore polyethylene terephthalate membranes (Corning Falcon^TM) were used to quantify cell migration. MDA-MB-231 cells were added at a density of 4 x 10^4 cells/insert in serum-free media (300 μL) in the upper chambers. In the lower chambers, 700 μL of medium supplemented with 10% FBS was added. […] The systems were incubated at 37°C for 6 h. Next, the cells inside the insert were removed with a cotton swab and the cells under the membrane were fixed with methanol and stained with toluidine blue for 5 min. Pictures of the stained membrane were taken under a 10X objective (Optiphase), and the cells were quantified using NIS Elements software (NIKON). Two independent experiments were conducted in duplicate.

tubulin [5] = molecular target: T1, tubulin (Sus scrofa, UniProt P02550+P02554); assay: Light-scattering-based tubulin polymerization assay; format: biochemical; details: read-out: IC50 Tubulin assembly
Description: To independently confirm the ability of the compounds to inhibit tubulin assembly, a second tubulin polymerization assay was carried out. We added 20 μL aliquots of the test compounds solubilized in 10% DMSO (in triplicate) to the wells of a 96-well culture plate (TPP^TM). Then, 180 μL of 3 mg/mL tubulin (>97% pure, HTS03, Cytoskeleton) in G-PEM buffer (80 mM PIPES, 1 mM EGTA, 2 mM GTP, 1 mM MgCl2 and glycerol 5%, pH 7,0) was added to the wells, and the absorbance at 340 nm was measured every 40 s for 1 h using a SpectraMax Plus384.

tubulin [6] = molecular target: T1, tubulin; assay: Fluorescence-based tubulin polymerization assay; format: biochemical; details: read-out: IC50 Tubulin assembly
Description: Tubulin polymerization assay kit B[…] (Cytoskeleton) was used according to the manufacturer's instructions. […] The curves were normalized, and the percentage of inhibition was calculated by comparing the polymerization reaction at 25 min relative to vehicle control.

T1 sequence (P02550 whole entry): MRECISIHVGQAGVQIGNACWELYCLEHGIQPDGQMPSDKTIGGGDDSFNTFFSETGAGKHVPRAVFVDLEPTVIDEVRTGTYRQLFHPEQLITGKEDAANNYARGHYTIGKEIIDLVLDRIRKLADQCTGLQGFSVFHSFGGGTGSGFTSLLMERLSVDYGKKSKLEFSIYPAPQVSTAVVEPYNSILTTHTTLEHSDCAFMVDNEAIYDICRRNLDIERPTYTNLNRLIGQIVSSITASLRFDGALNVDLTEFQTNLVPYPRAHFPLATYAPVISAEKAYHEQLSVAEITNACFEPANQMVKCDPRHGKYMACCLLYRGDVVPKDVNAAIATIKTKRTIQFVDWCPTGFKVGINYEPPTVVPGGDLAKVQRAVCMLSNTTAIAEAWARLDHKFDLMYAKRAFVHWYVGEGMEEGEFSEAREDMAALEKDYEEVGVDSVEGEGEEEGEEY
T1 sequence (P02554 whole entry): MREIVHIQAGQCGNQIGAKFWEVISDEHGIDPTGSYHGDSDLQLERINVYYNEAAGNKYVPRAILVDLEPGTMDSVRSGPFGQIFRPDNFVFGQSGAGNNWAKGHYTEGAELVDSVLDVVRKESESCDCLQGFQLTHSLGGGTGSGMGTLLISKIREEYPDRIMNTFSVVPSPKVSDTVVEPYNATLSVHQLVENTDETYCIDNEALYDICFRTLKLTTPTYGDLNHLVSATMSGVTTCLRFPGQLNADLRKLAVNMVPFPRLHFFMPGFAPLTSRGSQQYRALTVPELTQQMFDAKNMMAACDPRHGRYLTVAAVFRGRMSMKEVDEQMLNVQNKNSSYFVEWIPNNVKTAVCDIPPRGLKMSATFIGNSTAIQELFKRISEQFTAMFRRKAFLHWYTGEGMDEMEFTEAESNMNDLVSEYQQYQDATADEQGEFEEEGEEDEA

SMILES | IC50 at 72 h (Cytotoxicity assay (MTS)) [nM] | cells arrested in G2 (MDA-MB-231 cells [1]) [%] | IC50 (MDA-MB-231) [nM] | IC50 (DU-145) [nM] | dead cells (MDA-MB-231 cells [2]) [%] | apoptotic cells (MDA-MB-231 cells [2]) [%] | inhibition of wound closure (cell migration) (MDA-MB-231 cells [3]) | SI (selectivity index) (FGH) | cell death in FGH cells (FGH) [%] | IC50 (MDA-MB-231 cells [4]; Homo sapiens) [nM] | IC50 (MDA-MB-231; Homo sapiens, MDA-MB-231) [nM] | dead cells in MTS studies (MDA-MB-231) [%] | IC50 (DU-145; Homo sapiens, DU-145) [nM] | IC50 (FGH) [nM] | IC50 (MDA-MB-231 cells [4]) [nM] | IC50 (tubulin [5]) [nM] | IC50 (tubulin [6]) [nM]
COc1cc2c(c(OC)c1OC)-c1ccc(OC)c(=O)cc1[C@@H](NC(C)=O)CC2 [Colchicine, colchicine, reference compound] | < 20 | 42.9 | 20 ± 10 | 25 ± 3 | 72 | 65 | – | – | – | – | – | – | – | – | – | – | –
O=C1CCCC2=C1[C@@H](c1cccc([N+](=O)[O-])c1)c1ccc3ccccc3c1N2 [Compound 7] | > 100000 | 49.1 | – | – | 67 | 54.2 | inhibit cell migration | > 100 | 20 | 294 ± 5 | 190 ± 7 | 69 | 308 ± 50 | – | – | – | –
O=C1CCCC2=C1C(c1cccs1)c1ccc3ccccc3c1N2 (racemic) [Compound 9] | – | 53.6 | 1100 ± 200 | 1000 ± 300 | 75 | 54.6 | inhibit cell migration | – | 13 | – | – | 71 | – | > 100000 | 1345 ± 7 | 5000 ± 2000 | –
O=C1CCCC2=C1C(c1ccc3c(c1)OCO3)c1ccc3ccccc3c1N2 (stereo not drawn) [Compound 6] | – | 53.6 | 3000 ± 1000 | 3200 ± 700 | 55 | 69.4 | inhibit cell migration | – | 3 | – | – | 51 | – | > 100000 | 1700 ± 700 | – | 13000 ± 2000
